Results on three compounds are retold here after ChEMBL document CHEMBL1154663, “Synthesis, crystallization, and biological evaluation of an orally active prodrug of gemcitabine” (J Med Chem, 2009).

Data set [1] can be described thus: Stability in CD1 mouse small intestine homogenate assessed as hydrolysis rate minute at 96 uM. The data set is classed as ADME, tissue-based. The following applies: tissue homogenate.
A short description of data set [2]: Stability in human small intestine homogenate assessed as hydrolysis rate at 96 uM. The data set is classed as ADME, tissue-based. The following applies: tissue homogenate.
Data set [3] is described as follows: Stability in CD1 mouse small intestine homogenate assessed as hydrolysis rate after 30 mins at 96 uM. The following applies: read-out: Activity. The data set is classed as ADME, tissue-based.
A short description of data set [4]: Stability in human small intestine homogenate assessed as hydrolysis rate after 30 mins at 96 uM. The class given is ADME, tissue-based. To be noted: read-out: Activity.
Data set [5] in a line: Stability in human Caco-2 cell homogenate assessed as half life. The class given is ADME, Colon.
Data set [6] has as its system Blood. The experiment in a line: Drug level in CD1 mouse portal blood assessed as gemcitabine level at 14.3 mg/kg, po after 5 mins. The class given is ADME, organism-based. Further details: dose 14.3 mg/kg, route oral. The following applies: in vivo.
Data set [7] deals with HCT-116. The experiment in a line: Antitumor activity in human HCT116 cells xenografted CD1 mouse assessed as maximum tumor reduction at 160 mg/kg, ip administered as total 4 doses for every 3 days measured after 6 weeks. The data set is classed as functional. Set-up: scale not given: the % may be the effect or the level left. To be noted: route intraperitoneal.
Data set [8] is described as follows: Chemical stability in buffer solution assessed as hydrolysis at pH 1 after 4 hrs at 40 degC. The class given is physicochemical. To be noted: read-out: solubility.
The nature of data set [9]: Chemical stability in buffer solution assessed as hydrolysis at pH 2 after 4 hrs at 40 degC. The following applies: read-out: solubility. The class given is physicochemical.
Data set [10] can be described thus: Chemical stability in buffer solution assessed as hydrolysis at pH 4 after 4 hrs at 40 degC. The class given is physicochemical. To be noted: read-out: solubility.
Data set [11] in a line: Chemical stability in buffer solution assessed as hydrolysis at pH 6 after 4 hrs at 40 degC. The class given is physicochemical. To be noted: read-out: solubility.
Data set [12] can be described thus: Chemical stability in buffer solution assessed as hydrolysis at pH 8 after 4 hrs at 40 degC. The data set is classed as physicochemical. The following applies: read-out: solubility.
A short description of data set [13]: Solubility in buffer solution at pH 1 after 4 hrs at 40 degC. To be noted: pH 1, 4 h. The data set is classed as physicochemical.
Data set [14] is described as follows: Solubility in buffer solution at pH 2 after 4 hrs at 40 degC. To be noted: pH 2, 4 h. The class given is physicochemical.
Data set [15] in a line: Solubility in buffer solution at pH 4 after 4 hrs at 40 degC. The data set is classed as physicochemical. The following applies: pH 4, 4 h.
A short description of data set [16]: Solubility in buffer solution at pH 6 after 4 hrs at 40 degC. The class given is physicochemical. The following applies: pH 6, 4 h.
Data set [17] in a line: Solubility in buffer solution at pH 8 after 4 hrs at 40 degC. The data set is classed as physicochemical. To be noted: pH 8, 4 h.
Data set [18] can be described thus: Stability in human liver S9 fraction assessed as hydrolysis rate at 100 uM. The data set is classed as ADME, subcellular. The following applies: s9, 100 µM.
A short description of data set [19]: Drug level in CD1 mouse portal blood at 14.3 mg/kg, po after 5 mins. The data set is classed as ADME, organism-based. Set-up: dose 14.3 mg/kg, route oral. To be noted: read-out: Drug uptake.
In data set [20] the test system is Mus musculus. The experiment in a line: Gemcitabine AUC in CD1 mouse at 14.3 mg/kg, po. The data set is classed as ADME, organism-based. Further details: dose 14.3 mg/kg, route oral. The following applies: in vivo.
For data set [21], the system named is Mus musculus. The experiment in a line: Gemcitabine Cmax in CD1 mouse at 14.3 mg/kg, po. Set-up: dose 14.3 mg/kg, route oral. The data set is classed as ADME, organism-based. The following applies: in vivo.
Data set [22] in a line: AUC in po dosed CD1 mouse. The data set is classed as ADME, organism-based. To be noted: plasma.
The nature of data set [23]: Cmax in po dosed CD1 mouse. The class given is ADME, organism-based. Further details: route oral. The following applies: in vivo.
Data set [24] can be described thus: Tmax in po dosed CD1 mouse. To be noted: in vivo. The data set is classed as ADME, organism-based.
Data set [25] has as its system HCT-116. The experiment in a line: Antitumor activity in human HCT116 cells xenografted CD1 mouse assessed as maximum tumor reduction at 3.77 mg/kg, po administered daily for 14 days measured after 6 weeks. The class given is functional. Set-up: scale not given: the % may be the effect or the level left.
For data set [26], the system named is HCT-116. Nature of the data set: Antitumor activity in human HCT116 cells xenografted CD1 mouse assessed as maximum tumor reduction at 7.55 mg/kg, po administered daily for 14 days measured after 6 weeks. The class given is functional. Further details: scale not given: the % may be the effect or the level left. For orientation: Xenograft models place foreign cells or tissue in a host animal.

A short description of data set [27]: Stability in CD1 mouse liver S9 fraction assessed as hydrolysis rate at 100 uM. The following applies: s9, 100 µM. The class given is ADME, subcellular.

In the case of `CC[C@H](C)[C@H](N)C(=O)OC[C@H]1O[C@@H](n2ccc(N)nc2=O)C(F)(F)[C@@H]1O`, the Activity was 2.3 nmol/mg/min in data set [1] and 3.7 nmol/mg/min in [2]. Also, the metabolised at 0.5 h, 96 µM in data set [3] and in data set [4] was 100% throughout. Moreover, in data set [5], the half-life – broadly, the time in which the quantity being followed falls by half – is 75 min.

In the case of `Cl.Nc1ccn([C@@H]2O[C@H](CO)[C@@H](O)C2(F)F)c(=O)n1` [GEMCITABINE HYDROCHLORIDE], the Drug uptake in [6] amounted to 99 ng/mL. Besides, the Activity in data set [7] is 71.5%.

Consider `CCCC(CCC)C(=O)Nc1ccn([C@@H]2O[C@H](CO)[C@@H](O)C2(F)F)c(=O)n1` [LY-2334737], for which the degraded at 4 h was found to be 21% in [8]; 12% in data set [9]; 2% in data set [10]; 0% in data set [11]; 0% in data set [12]. The solubility in data set [13] was 1.12%; in data set [14], 1.79%; in [15] it was more than 2%; in [16], more than 2%. Besides, the Activity was more than 2% in data set [17]; less than 0.01 nmol/mg/min in [1]; less than 0.01 nmol/mg/min in [2]; 27 pmol/min/mg in [18]; 56.3% in data set [25]; 67.1% in [26]. For the same compound, in [27], the Activity amounted to 11 pmol/mg/min. Besides, the metabolised at 0.5 h, 96 µM in [3] and in data set [4] was 1% throughout. In addition, the concentration at 5 min in data set [19] worked out at 653 ng/mL. Besides, the AUC (commonly the area under the concentration-time curve, a measure of exposure) in data set [20] was 778 ng·h/mL; in data set [22], 536 ng·h/mL. The figures for the highest concentration (Cmax) in data set [21] and in data set [23] were 373 ng/mL and 535 ng/mL, respectively. Moreover, the Tmax (commonly the time at which the peak concentration occurs) in [24] turned out to be 30 min.
